Measurements as given in article PMC5391125, “Fatty acid DSF binds and allosterically activates histidine kinase RpfC of phytopathogenic bacterium Xanthomonas campestris pv. campestris to regulate quorum-sensing and virulence” (PLoS Pathogens, 2017).

Tests used:
RpfC^S18A liposome = target: T1, RpfC^S18A liposome (Xanthomonas campestris pv. campestris, UniProt P0C0F7, S18A); assay: MST binding, RpfC^S18A liposome
T1 construct: His6 (C); made in house; host or cells: E. coli BL21(DE3), pET30a
Description: (§1) Binding reactions of RpfC to DSF was measured by microscale thermophoresis in a Monolith NT.Label Free (Nano Temper Technologies GMBH, Germany) instrument which detects changes in size, charge and conformation induced by binding. RpfC liposomes were collected with centrifugation of 200,000 g for 40 min and resuspended in MST buffer (50 mM Tris-HCl pH 7.8, 150 mM NaCl, 10 mM MgCl2, 0.05% Tween-20) to an approximate concentration of 0.1 μM. A range of concentration of DSF (range from 0.06 μM to 2 mM) in assay buffer (50 mM Tris-HCl pH 7.8, 150 mM NaCl, 10 mM MgCl2, 0.05% Tween-20, 5% methanol) was incubated with RpfC liposomes (1:1, v/v) for 10 minutes. The sample was loaded into the NT.Label Free standard capillaries and measured with 20% LED power and 40% MST power. Purified sensor protein was dissolved in reaction buffer (50 mM Tris-HCl pH 8.5, 150 mM NaCl, 0.1% Tween-20) to a final concentration as 8 μM. Dilute DSF from 0.0122 μM to 25 μM in buffer (50 mM Tris-HCl pH 8.5, 150 mM NaCl, 0.25‰ methanol). Different concentrations of DSF and sensor protein (1:1, v/v) were mixed and loaded into NT.Label Free standard capillaries. […]
(§2) Supplementary file ppat.1006304.s004.pdf: S4 Fig Substitution of essential amino acid impact DSF-RpfC interaction. Microscale thermophoresis (MST) was used to quantify the binding affinity between DSF and RpfC derivates. […]

RpfC^FL liposome [1] = target: T2, RpfC^FL liposome (Xanthomonas campestris pv. campestris, UniProt P0C0F7); assay: In vitro autokinase (phosphorylation) assay, RpfC^FL liposome; type: biochemical; details: 10 μM DSF
T2 construct: His6 (C); made in house; host or cells: E. coli BL21(DE3), pET30a
Description: (§3) in vitro phosphorylation assay was conducted as described in our previous study. For autophosphoylation, RpfC liposomes or IMV were incubated with 100 μM ATP containing 10 μCi [γ-^32P]ATP (PerkinElmer, USA) in autophosphorylation buffer (50 mM Tris-HCl, pH 7.8, 2 mM DTT, 25 mM NaCl, 25 mM KCl, 5 mM MgCl2) for indicated time (28°C). If necessary, DSF was added into the mixture 20 min before addition of ATP. The reaction was stopped with 6 × SDS-PAGE loading buffer. The phosphorylated proteins were separated by 12% SDS-PAGE. After SDS-PAGE electrophoresis, gels were separated from back glass plate and placed in a Ziploc bag and exposed to a phosphor screen for 1 hour. The screen was scanned with a PhosphorImage system (Amersham Biosciences, USA) at […]. If necessary, signal intensity was measured by Quantity One software (Bio-Rad).

RpfC sensor peptide = target: T3, RpfC sensor peptide (Xanthomonas campestris pv. campestris, UniProt P0C0F7); assay: Circular dichroism of RpfC sensor peptide; details: sensor 60 μM; DSF 0, 100, 500 μM
T3 construct: GST (N, cleaved yes); made in house; host or cells: E. coli BL21 (DE3), pGEX6P-1
Description: To determine if DSF has impact on RpfC sensor conformation change, CD analysis was carried out on a Chirascan CD Spectrometer (Applied Photophysics, UK), with 10 mm pathlength and 1 nm bandwidth. Sensor protein with GST tag cleaved off was dissolved in buffer (50 mM Tris-HCl pH 8.5, 150 mM NaCl) to 60 μM. Dilute DSF with Sensor protein to a series of concentration (0 μM, 100 μM and 500 μM). CD wavelength scans were collected between 200 nm-260 nm. The spectra data were analyzed on the http://dichroweb.cryst.bbk.ac.uk website with Contin-LL method.

RpfC^S3A liposome = target: T4, RpfC^S3A liposome (Xanthomonas campestris pv. campestris, UniProt P0C0F7, S3A); assay: MST binding, RpfC^S3A liposome
T4 construct: His6 (C); made in house; host or cells: E. coli BL21(DE3), pET30a
Description: as §1, §2

RpfC^R15A liposome = target: T5, RpfC^R15A liposome (Xanthomonas campestris pv. campestris, UniProt P0C0F7, R15A); assay: MST binding, RpfC^R15A liposome
T5 construct: His6 (C); made in house; host or cells: E. coli BL21(DE3), pET30a
Description: as §1, §2

RpfC^D17A liposome = target: T6, RpfC^D17A liposome (Xanthomonas campestris pv. campestris, UniProt P0C0F7, D17A); assay: MST binding, RpfC^D17A liposome
T6 construct: His6 (C); made in house; host or cells: E. coli BL21(DE3), pET30a
Description: as §1, §2

RpfC^Q22A liposome [2] = target: T7, RpfC^Q22A liposome (Xanthomonas campestris pv. campestris, UniProt P0C0F7, Q22A); assay: Autokinase assay, RpfC^Q22A liposome; type: biochemical; details: 0.75 μM DSF, 5 min
T7 construct: His6 (C); made in house; host or cells: E. coli BL21(DE3), pET30a
Description: as §3

GST = GST (Schistosoma japonicum, UniProt P08515); assay: Circular dichroism of GST; details: GST 6 μM
RpfC^Q22A liposome [3] = target: T7, RpfC^Q22A liposome; assay: MST binding, RpfC^Q22A liposome
Description: as §1, §2

cell-cell communication = tested on: cell-cell communication; parameters: method as in PMID 14731288; details: cited from earlier work
soluble RpfC^Δinput = target: T8, soluble RpfC^Δinput (Xanthomonas campestris pv. campestris, UniProt P0C0F7); assay: Thermal shift assay, soluble RpfC^Δinput; type: binding
T8 construct: a truncated, soluble RpfC protein (RpfC^Δinput) lacking the N-terminal input region (including sensor and TM domains) was obtained and purified; His6 (C); made in house; host or cells: E. coli BL21(DE3), pET30a
Description: DSF was mixed with purified proteins or liposomes of RpfC to a final concentration of 0 μM, 5 μM or 10 μM respectively in the reaction buffer (50 mM Tris-HCl pH 7.8, 25 mM NaCl, 100 mM KCl). The protein concentration was 0.5–1 μg/μl. The TSA was performed by a Prometheus NT.48 nanoDSF device with a temperature gradient of 20–95°C, 1°C /min. Unfolding transition points were determined according to the changes of intrinsic tryptophan fluorescence at 330 nm, 350 nm. The ratio of fluorescence and the melting temperature (Tm) were calculated by the NT Melting Control software (NanoTemper Technologies).

RpfC^E19A liposome = target: T9, RpfC^E19A liposome (Xanthomonas campestris pv. campestris, UniProt P0C0F7, E19A); assay: MST binding, RpfC^E19A liposome
T9 construct: His6 (C); made in house; host or cells: E. coli BL21(DE3), pET30a
Description: as §1, §2

RpfC^FL liposome [4] = target: T2, RpfC^FL liposome; assay: Limited proteolysis of RpfC^FL liposome; details: with AMP-PNP, vs DSF minus control
Description: The limited proteolysis experiments were performed at 0°C with 1.4 μg RpfC liposomes in a reaction buffer containing 50 mM Tris-HCl, pH 8.0, 100 mM NaCl, 2 mM DTT and 1.13 mM AMP-PNP. Trypsin was added to a final concentration of 0.018 μg μl^-1 to degrade RpfC liposome. Aliquot was removed at indicated time and the reaction was stopped by 5 × SDS loading buffer (250 mM Tris-HCl pH 6.8, 10% (w/v) SDS, 0.5% (w/v) bromophenol blue, 50% (v/v) glycerol, 25 mM PMSF). Samples were separated by 12% SDS-PAGE gel and protein bands were detected by silver staining. The sequence of the different peptide fragments were determined by a nanoLC-MS/MS with Orbitrap Fusion system (Thermo scientific, USA).

CC(C)CCCCCCC/C=C\C(=O)O [DSF, cis-11-methyl-dodecenoic acid]
binding between DSF and RpfC liposome (RpfC^S18A liposome): completely eliminated the binding
level of RpfC^FL-P phosphorylation compared with the control (RpfC^FL liposome [1]): approximately doubled
time of increase in phosphorylation level post DSF addition (RpfC^FL liposome [1]): 2 min
ratio of strand in secondary structure (RpfC sensor peptide): gradually elevated
Kd (RpfC^S3A liposome; MST): 0.613 ± 0.34 µM
increase of binding affinity compared with WT RpfC (RpfC^S3A liposome; S3A replacement): approximately 20%
binding between DSF and RpfC liposome (RpfC^R15A liposome): completely eliminated the binding
binding between DSF and RpfC liposome (RpfC^D17A liposome): completely eliminated the binding
RpfC-P levels under DSF treatment (RpfC^Q22A liposome [2]): significant decrease
impact on secondary structure (GST): did not have recognizable impact
binding between DSF and RpfC liposome (RpfC^Q22A liposome [3]): completely eliminated the binding
minimal bioactive concentration of DSF required for eliciting cell-cell communication (cell-cell communication): approximately 0.5 μM
thermal shift after DSF stimulation (soluble RpfC^Δinput): no thermal shift was detected
binding between DSF and RpfC liposome (RpfC^E19A liposome): completely eliminated the binding
DHp-CA fragment (30 kDa) after trypsin limited proteolysis (RpfC^FL liposome [4]): large accumulation
